Tested on: STAT3
Assay: STAT3-dependent luciferase reporter assay in MDA-MB-231-STAT3 stable cells
Type: cell-based, human
Settings: 20 μM; for Rel. luciferase activity (%) 1: experiment 1, relative to DMSO; for Rel. luciferase activity (%) 2: experiment 2, relative to DMSO; for Rel. luciferase activity (%) 3: experiment 3, relative to DMSO; for Rel. luciferase activity (%) Mean: mean of experiments, relative to DMSO; for inhibition of luciferase expression compared to DMSO vehicle control: significant = p value less than 0.05
Procedure: FIG. 12. Identification of active inS3-54 analogues. (A) Effects of inS3-54 analogues on STAT3-dependent luciferase expression. MDA-MB-231 cells with stable STAT3-dependent luciferase expression were treated with DMSO control, 20 μM inSTAT3-54 or its analogues (A1-A79), followed by measurement of luciferase activity. (*p<0.05; **p<0.01; ***p<0.001).
MDA-MB-231-STAT3 stable cell line with high level of STAT3-dependent luciferase expression was exposed to candidate compounds at 20 μM in DMSO for 48 hours based on previous studies, and luciferase activity was measured using a luciferase assay kit (Promega, USA), following manufacturer's instructions. The final DMSO concentration in this and following assays was 0.1% (vol/vol).

Cc1ccc(N2C(=O)C(=Cc3ccc([N+](=O)[O-])cc3)C=C2c2ccccc2)cc1C [Compound A29]
Rel. luciferase activity (%) 1: 100.7% | Rel. luciferase activity (%) 2: 170.4% | Rel. luciferase activity (%) 3: 113.3% | Rel. luciferase activity (%) Mean: 128.1%

O=C1C(=Cc2ccc(Cl)cc2)C=C(c2ccccc2)N1c1cccc(Cl)c1 [Compound A76]
Rel. luciferase activity (%) 1: 60.0% | Rel. luciferase activity (%) 2: 151.4% | Rel. luciferase activity (%) 3: 104.0% | Rel. luciferase activity (%) Mean: 105.1%

O=C1C(=Cc2ccc([N+](=O)[O-])cc2)C=C(c2ccccc2)N1c1ccc(Cl)c(Cl)c1 [Compound A48]
Rel. luciferase activity (%) 1: 87.5% | Rel. luciferase activity (%) 2: 108.6% | Rel. luciferase activity (%) 3: 42.5% | Rel. luciferase activity (%) Mean: 79.5%

Cc1ccccc1N1C(=O)C(=Cc2ccc(-c3ccc([N+](=O)[O-])cc3)o2)C=C1c1ccccc1 [Compound A9]
Rel. luciferase activity (%) 1: 78.4% | Rel. luciferase activity (%) 2: 95.8% | Rel. luciferase activity (%) 3: 96.2% | Rel. luciferase activity (%) Mean: 90.2%

O=C1C(=Cc2ccc(Cl)cc2)C=C(c2ccccc2)N1c1ccccc1Cl [Compound A27]
Rel. luciferase activity (%) 1: 48.5% | Rel. luciferase activity (%) 2: 83.6% | Rel. luciferase activity (%) 3: 74.2% | Rel. luciferase activity (%) Mean: 68.8% | inhibition of luciferase expression compared to DMSO vehicle control: significantly inhibited

COC(=O)c1ccc(N2C(=O)C(=Cc3ccc(OC)cc3)C=C2c2ccccc2)cc1 [Compound A54]
Rel. luciferase activity (%) 1: 77.8% | Rel. luciferase activity (%) 2: 100.8% | Rel. luciferase activity (%) 3: 41.7% | Rel. luciferase activity (%) Mean: 73.5%

O=C1C(=Cc2ccc([N+](=O)[O-])cc2)C=C(c2ccccc2)N1c1ccccc1 [Compound A68]
Rel. luciferase activity (%) 1: 71.2% | Rel. luciferase activity (%) 2: 84.5% | Rel. luciferase activity (%) 3: 68.7% | Rel. luciferase activity (%) Mean: 74.8% | inhibition of luciferase expression compared to DMSO vehicle control: significantly inhibited

COc1ccc(C=C2C=C(c3ccccc3)N(c3cccc(Cl)c3Cl)C2=O)cc1 [Compound A58]
Rel. luciferase activity (%) 1: 78.9% | Rel. luciferase activity (%) 2: 81.8% | Rel. luciferase activity (%) 3: 36.8% | Rel. luciferase activity (%) Mean: 65.8%

O=C(O)c1cccc(N2C(=O)C(=Cc3ccc(-c4cc(Cl)ccc4Cl)o3)C=C2c2ccccc2)c1 [Compound A2]
Rel. luciferase activity (%) 1: 120.3% | Rel. luciferase activity (%) 2: 107.5% | Rel. luciferase activity (%) 3: 114.1% | Rel. luciferase activity (%) Mean: 114.0%

O=C1C(=Cc2ccc([N+](=O)[O-])cc2)C=C(c2ccccc2)N1Cc1ccccc1 [Compound A36]
Rel. luciferase activity (%) 1: 46.4% | Rel. luciferase activity (%) 2: 87.4% | Rel. luciferase activity (%) 3: 66.3% | Rel. luciferase activity (%) Mean: 66.7% | inhibition of luciferase expression compared to DMSO vehicle control: significantly inhibited

O=C1C(=Cc2ccc([N+](=O)[O-])cc2)C=C(c2ccccc2)N1c1ccc(Cl)c(Cl)c1 [Compound A39]
Rel. luciferase activity (%) 1: 119.6% | Rel. luciferase activity (%) 2: 129.6% | Rel. luciferase activity (%) 3: 65.9% | Rel. luciferase activity (%) Mean: 105.1%
